According to publication PMC5306082, “Physiologically based kinetic modeling of the bioactivation of myristicin” (Archives of Toxicology, 2016):
Read-outs that look alike come from different tables or passages of the source.

Legend:
[1] = Sulfonation of 1′-hydroxymyristicin, male rat liver S9; assay type: in vitro ADME
Protocol: (§1) The formation of 1′-sulfoxymyristicin was determined using incubations containing male rat liver Sprague–Dawley or pooled gender human liver S9 proteins, PAPS as a cofactor, and GSH, which acts as a scavenger of the reactive carbocation formed due to the unstable nature of the 1′-sulfoxy metabolite in an aqueous environment (van den Berg et al. [2012]; Martati et al. [2011]; Al-Subeihi et al. [2011]). Incubation mixtures containing (final concentrations) 10 mM of GSH, 0.2 mM of PAPS, and 3 mg/ml of S9 proteins in 0.1 M potassium phosphate (pH 8.2) were pre-incubated for 1 min at 37 °C. After the pre-incubation, 1′-hydroxymyristicin dissolved in DMSO was added in final concentrations ranging between 10 and 6000 μM while keeping the final content of DMSO at 1 % (v/v). The reaction was terminated after 360 min of incubation by adding 25 μl (0.25 times the incubation volume) of ice-cold ACN. The formation of the GSH conjugate of 1′-sulfoxymyristicin was linear with time and S9 protein concentrations under the experimental conditions used. Blank incubations were performed in the absence of PAPS. Incubations were performed in triplicate. All samples were centrifuged for 5 min at 16,000×g, and the supernatant was stored at −20 °C until ultra-performance liquid chromatography (UPLC) analysis.
(§2) Quantification of 1′-sulfoxymyristicin was done using UPLC analysis as described for the estimation of 1′-sulfoxysafrole (Martati et al. [2011]). […] The gradient for analysis of the metabolite consisted of a mixture of ACN and ultrapure water containing 0.1 % (v/v) TFA. The flow rate was 0.6 ml/min, starting at 0 % ACN and increasing the percentage of ACN to 20 % over 0.2 min, followed by an increase to 30 % ACN over 4.3 min, then increasing to 100 % over 0.3 min, and keeping it at 100 % for 0.2 min, and finally decreasing to 0 % over 0.2 min and keeping it at 0 % for 0.8 min. Separation and purification of the GSH adduct of 1′-sulfoxymyristicin was performed by collecting the peak of the metabolite from the UPLC column. […]

[2] = Sulfonation of 1′-hydroxymyristicin, human liver S9; assay type: in vitro ADME
Protocol: as §1, §2

[3] = Microsomal conversion of myristicin, male rat liver microsomes; assay type: in vitro ADME
Protocol: (§3) First, it was determined which organs are involved in the biotransformation of myristicin in rat and human. For this purpose, liver, kidney, lung, and small intestine microsomes from male Sprague–Dawley rat and pooled gender human were used. Incubations were performed by adding myristicin to incubation mixtures containing 1 mg/mL of the microsomal protein preparations and 3 mM NADPH in 0.2 M Tris–HCl (pH 7.4). After 1 min of pre-incubation at 37 °C, myristicin (final concentration, 1000 μM) was added from a 100 times concentrated stock solution in DMSO so that the final DMSO content was 1 % (v/v). Incubations were carried out for 30 min after which the reactions were terminated by adding 25 µl (0.25 times the incubation volume) of ice-cold ACN. Samples were centrifuged for 5 min at 13,000×g, and the supernatant was stored at −20 °C until UPLC analysis. As metabolism of myristicin was observed only in incubations with liver microsomes for male rats and pooled gender human, the determination of kinetic constants for the formation of microsomal metabolites was performed only for the liver fractions. Incubations to determine kinetic constants were performed following the conditions described above using final concentrations of myristicin from 25 to 1000 μM for rat and human liver. In all incubations, the final concentration of DMSO, in which myristicin was dissolved, was kept at 1 % (v/v). The formation of different microsomal metabolites was linear with time and microsomal protein concentration under the conditions described. Blank incubations were performed in the absence of the cofactor NADPH. All incubations were performed in triplicate.
(§4) Secondary metabolism of the relevant 1′-hydroxy metabolite of myristicin was taken into account by determining the kinetic constants for its conversion in (a) glucuronidation, (b) sulfation, and (c) oxidation, again under conditions that allowed adequate definition of kinetic constants and with <10 % substrate conversion. Incubation samples were subjected to UPLC analysis that was performed as described previously (Punt et al. [2008]). Identification was achieved by comparing the UV spectra of the formed metabolites to the spectra of the synthesized 1′-hydroxymyristicin and 1′-oxomyristicin reference standards. Quantification of all formed metabolites was done by comparing the peak areas to those of calibration curves of the corresponding reference compounds, determined using UPLC with photodiode array detection (UPLC-PDA). The UPLC system was composed of a Waters (Waters, Milford, MA) Acquity solvent manager, sample manager, and photodiode array detector, equipped with Water Acquity UPLC BEH C18 column.
(§5) The gradient for analysis of microsomal metabolites was performed with 100 % ACN and ultrapure water containing 0.1 % (v/v) TFA. The flow rate was 0.6 ml/min. The gradient started at 10 % ACN, increased to 50 % ACN over 4 min, increased to 80 % over 0.5 min, followed by decrease to 10 % ACN over 0.5 min, and finally kept at 10 % for 1 min.

[4] = Microsomal conversion of myristicin, human liver microsomes; assay type: in vitro ADME
Protocol: as §3, §4, §5

rat urine = system: rat urine; parameters: method as in Beyer et al. [2006]; conditions: single oral dose 100 mg/kg bw myristicin, urine over 24 h; ref Beyer et al. [2006]; cited from earlier work
[5] = Metabolism of myristicin by human small intestine, lung, kidney microsomes; assay type: in vitro ADME; conditions: 1000 μM myristicin, 1 mg/mL microsomal protein, NADPH, 30 min
Protocol: as §3, with “The formation of different microsomal metabolites was linear with time and microsomal protein concentration under the conditions described. Blank incubations were performed in the absence of the cofactor NADPH. All incubations were performed in triplicate.” left out

Mouse liver CD-1 = conditions: cited from earlier work; for pmol Adduct/mg DNA: female, livers 24 h after treatment
[6] = system: Cultured human HepG2 cells; conditions: harvested after 24 h, ref Zhou et al. (2007a), cited from earlier work
DNA = conditions: ref Zhou et al. [2007a]; Kobets et al. [2016]; Phillips et al. [1984]; Randerath et al. [1984]; cited from earlier work
[7] = system: freshly isolated rat hepatocytes in primary culture; conditions: 10^−6 to 10^−3 M; ref Howes et al. [1990]; cited from earlier work
[8] = Metabolism of myristicin by rat small intestine, lung, kidney microsomes; assay type: in vitro ADME; conditions: 1000 μM myristicin, 1 mg/mL microsomal protein, NADPH, 30 min
Protocol: as §3, with “The formation of different microsomal metabolites was linear with time and microsomal protein concentration under the conditions described. Blank incubations were performed in the absence of the cofactor NADPH. All incubations were performed in triplicate.” left out

[9] = uptake from GI tract, assumed from fast and complete absorption of safrole; ref Punt et al. [2008]; cited from earlier work
New born mice B6C3F1 = conditions: male, injections on days 1, 8, 15, 22 after birth, ref Phillips et al. (1984), cited from earlier work
pregnant ICR mice = conditions: single dose of 6 mg myristicin by gastric intubation; ref Randerath et al. [1993]; cited from earlier work
[10] = Margin of exposure (MOE) risk assessment; conditions: BMDL10 of safrole
From the text: The margin-of-exposure (MOE) concept was applied to assess the possible risks for human health resulting from the daily exposure to myristicin (JECFA [2005]; EFSA [2005]; Barlow et al. [2006]; O’Brien et al. [2006]). The MOE is a dimensionless ratio based on a reference point representing a dose causing a low but measurable cancer incidence in experimental animals (e.g., a BMDL10), which is divided by the estimated daily intake in humans (EFSA [2005]). […] The estimated daily intake of safrole from spice and spice oil in the USA amounts to 0.001 mg/kg bw per day (WHO [2009]).

male B6C3F1 mice = conditions: total dose 3.75 or 4.75 µmol injected over 22 days, 12 or 18 months; ref Miller et al. [1983]; cited from earlier work
[11] = ref EFSA [2012]; Zhou et al. [2007b]; cited from earlier work
rats or mice = conditions: chronic oral exposure to high doses, or male CD-1 mice preweaning; ref Borchert et al. [1973]; Drinkwater et al. [1976]; National Toxicology [2000]; cited from earlier work
experimental animals = conditions: tumor formation; ref van den Berg et al. [2011]; cited from earlier work
[12] = S9 protein yield 143 mg/g liver
[13] = formation of the metabolite from myristicin, NADPH, mean of three ± SD
[14] = formation of the metabolite from myristicin, Vmax/Km × 1000
[15] = from myristicin, scaled Vmax/Km
[16] = 80 mg/kg bw i.p., ref Randerath et al. (1984)
[17] = 400 mg/kg bw i.p., ref Randerath et al. (1984)

C=CC(OS(=O)(=O)O)c1cc(OC)c2c(c1)OCO2 (stereo not shown) [1′-Sulfoxymyristicin, 1′-sulfoxymyristicin]
k, first-order rate constant for product formation ([1]; S9, PAPS, GSH trapping): 17.6 × 10^−6 ml/min/mg protein
k Scaled [1, 12]: 0.15 ml/hr/g tissue
k, first-order rate constant for product formation ([2]; S9, PAPS, GSH trapping): 16.3 × 10^−6 ml/min/mg protein
k Scaled [2, 12]: 0.14 ml/hr/g tissue

C=CCc1cc(O)c(O)c(OC)c1 [5-Allyl-2,3-dihydroxyanisole, 5-allyl-2,3-dihydroxyanisole]
Vmax [3, 13]: 1.3 ± 0.23 nmol min^−1 (mg microsomal or S9 protein)^−1
In vitro catalytic efficiency [3, 14]: 39.394 μl min^−1 (mg microsomal or S9 protein)^−1
Scaled Vmax, in vivo ([3]; from myristicin, microsomal protein yield 35 mg/g liver): 2.73 μmol/h/g tissue
In vivo catalytic efficiency [3, 15]: 0.0827 ml/h/g tissue
catalytic efficiency, fold higher than for formation of 3′-hydroxymyristicin ([3]; male rat liver microsomes): approximately sevenfold
Vmax [4, 13]: 0.93 ± 0.13 nmol min^−1 (mg microsomal or S9 protein)^−1
In vitro catalytic efficiency [4, 14]: 7.881 μl min^−1 (mg microsomal or S9 protein)^−1
Scaled Vmax, in vivo ([4]; from myristicin, microsomal protein yield 32 mg/g liver): 1.786 μmol/h/g tissue
In vivo catalytic efficiency [4, 15]: 0.0151 ml/h/g tissue
metabolite in rat urine, percentage of the total dose (rat urine): 67 % of the total dose

C=CCc1cc(OC)c2c(c1)OCO2 [Myristicin, 1-allyl-5-methoxy-3,4 methylene-dioxybenzene]
metabolism of myristicin in small intestine, lung, or kidney microsomes [5]: no detectable metabolism
pmol Adduct/mg DNA (Mouse liver CD-1; [16]): 16.8 pmol Adduct/mg DNA
pmol Adduct/mg DNA (Mouse liver CD-1; [17]): 49.5 pmol Adduct/mg DNA
pmol Adduct/mg DNA ([6]; 50 uM): 0.017 pmol Adduct/mg DNA
pmol Adduct/mg DNA ([6]; 150 uM): 0.049 pmol Adduct/mg DNA
pmol Adduct/mg DNA ([6]; 450 uM): 0.165 pmol Adduct/mg DNA
DNA adduct formation, result (DNA): positive results
cytotoxicity [7]: showed cytotoxicity
metabolism of myristicin in small intestine, lung, or kidney microsomes [8]: no detectable metabolism
absorption rate constant (ka) [9]: 1.0 h⁻¹
pmol Adduct/mg DNA (New born mice B6C3F1; 36.5 mg/kg bw i.p.): 7.8 pmol Adduct/mg DNA
level of myristicin adducts in fetal liver (pregnant ICR mice): 63 % of the total adducts
level of myristicin adducts in maternal liver (pregnant ICR mice): 68 % of the total adducts
MOE ([10]; estimated daily intake of myristicin 0.0019 mg/kg bw per day from herbs and spices): 1000–2684
activity for the initiation of hepatic tumors (male B6C3F1 mice): no detectable activity
in vitro genotoxicity [11]: mutagenic

C=CCc1ccc2c(c1)OCO2 [Safrole, safrole]
pmol Adduct/mg DNA (Mouse liver CD-1; [16]): 45.9 pmol Adduct/mg DNA
pmol Adduct/mg DNA (Mouse liver CD-1; [17]): 203.4 pmol Adduct/mg DNA
DNA adduct after 140 days (persistence) (Mouse liver CD-1; 400 mg/kg bw safrole, liver 140 days after treatment, ref Randerath et al. (1984)): After admin. of dose 400 mg/kg bw safrole, livers were taken after 24 h, 28, 58, 98, and 140 days after each treatment, after 140 days adduct was 21 pmol/mg DNA
DNA adduct formation in the liver, times higher for safrole than myristicin (Mouse liver CD-1; mice, i.p. injection, ref Randerath et al. [1984]): 2.7 times
pmol Adduct/mg DNA ([6]; 150 uM): 0.083 pmol Adduct/mg DNA
pmol Adduct/mg DNA ([6]; 450 uM): 0.102 pmol Adduct/mg DNA
DNA adduct formation, result (DNA): positive results
cytotoxicity [7]: cytotoxicity
unscheduled DNA synthesis (UDS) [7]: induced unscheduled DNA synthesis (UDS)
induction of hepatic tumors (rats or mice): induce hepatic tumors
BMDL10 (experimental animals): 1.9–5.1 mg/kg bw per day
pmol Adduct/mg DNA (New born mice B6C3F1; 30.8 mg/kg bw i.p.): 17.5 pmol Adduct/mg DNA
MOE ([10]; estimated daily intake of safrole 0.001 mg/kg bw per day from spice and spice oil in the USA): 1900–5100
